Experimental data taken from patent US7186413B2, “Hydrogels and water soluble polymeric carriers for drug delivery” (The Regents of the University of Michigan, priority 1998, dated 2007).

Legend:
[1] = release of ionically bound or physically entrapped drugs and dyes from hydrogels; format: physicochemical
Procedure: Samples containing 9.8, 19.5, and 39.1 mg brilliant blue per gram of PAG either with or without calcium (which enhances gelling) were studied over a period of several weeks.

[2] = system: KB cells; test: standard cytotoxicity assay with KB cells
Procedure: The activity of covalently bound daunomycin released from 6 wt % PAG gels was tested using KB cells in a standard cytotoxicity assay. Gels containing either zero, 13.3 or 30 mg of drug per gram of PAG were incubated in sterile media at 37° C. which was tested and replaced weekly.
The biocompatibility of PAG has been tested in vitro.
Sodium periodate, adipic dihydrazide, ethylene glycol, and calcium chloride were purchased from Aldrich Chemical Company (Milwaukee, Wis.) and were used as received. Daunomycin hydrochloride was purchased from Fluka Chemical Corporation (Ronkonkoma, N.Y.). Dulbecco's Modified Eagle's Medium (DMEM) was purchased from Life Technologies (Grand Island, N.Y.). […] The elution of the drug was monitored at 480 nm. • Synthesis of the poly(aldehyde guluronate), PAG. […] The product was analyzed by ^1H-NMR, FTIR, and the aldehyde content was quantified using trinitrobenzene sulfonic acid. • Preparation of cross-linked PAG hydrogels. […] To quantify the amount of daunomycin that is incorporated in the gels, two sets of hydrogels were formed as described above. […] The solutions were then sonicated for 30 minutes, quantitatively transferred to 5 ml volumetric flasks, and diluted with double distilled water. […]

[3] = in vitro release of daunomycin from cross-linked PAG hydrogels; format: physicochemical
[4] = determination of the drug incorporated (retained) in PAG hydrogel; format: physicochemical; conditions: lyophilized, crushed PAG hydrogel extracted with water
Procedure: The reaction described in Example 2 was utilized to incorporate daunomycin into hydrogels for localized drug delivery. HPLC was used to determine the amount of daunomycin that reacted with adipic dihydrazide before the addition of PAG. Mixtures of daunomycin and adipic dihydrazide were analyzed and found to contain 88.5% of the daunomycin-adipic dihydrazide conjugate and 11.5% of free drug (FIG. 21). The amount of daunomycin that was covalently incorporated into the hydrogel was next determined by quantifying the amount of free drug in the hydrogel. Hydrogels containing daunomycin or trypan blue were synthesized, frozen, lyophilized, and crushed to form powders. The free drug was then dissolved in water and the resulting mixture was filtered to remove any fine particles. The concentration of the free drug was then determined spectrophotometrically. […] Only two percent of the trypan blue was retained in the hydrogel. In comparison, 86.9±0.1% of daunomycin remained in the gelatinous particles. Moreover, hydrogels containing trypan blue that were incubated in DMEM released the entire drug within 24 hours. These findings clearly indicate that daunomycin is covalently coupled to the hydrogel through the adipic dihydrazide molecule. The daunomycin incorporation in the hydrogels correlates well with the percentage of daunomycin-adipic dihydrazide conjugate that was determined by HPLC analysis. […]

For CN(Cc1cnc2nc(N)nc(N)c2n1)c1ccc(C(=O)N[C@@H](CCC(=O)O)C(=O)O)cc1 [Methotrexate], which “time to quantitative release from the hydrogels” value ([1]; physically entrapped, diffusion, all conditions) is on record?
Its value is ≤ 5 days.

For O=C1c2c(O)ccc(O)c2C(=O)c2c(NCCNCCO)ccc(NCCNCCO)c21 [Mitoxantrone], which “cytotoxicity of drug alone versus mixed with AAD (prodrug formation, FIG. 9)” value ([2]; mixed with AAD) is on record?
The value was “not found to form a prodrug”.

Which results are given for COc1cccc2c1C(=O)c1c(O)c3c(c(O)c1C2=O)C[C@@](O)(C(C)=O)C[C@@H]3O[C@H]1C[C@H](N)[C@H](O)[C@H](C)O1 [daunomycin]?
drug released during the first six weeks ([3]; 6% w/w PAG, 150 mM AAD, 40 mM calcium): 40%; release rate of drug from hydrogel ([3]; 6% w/w PAG, 150 mM AAD, 40 mM calcium, first six weeks): 0.8 % drug per day; time to release of all incorporated drug ([3]; 6% w/w PAG, 150 mM AAD, absence of calcium): four; release rate of drug from hydrogel ([3]; 6% w/w PAG, 150 mM adipic dihydrazide, acidic medium): 1.8 % per day; release rate of drug from hydrogel ([3]; 6% w/w PAG, 150 mM adipic dihydrazide, neutral condition): 1 % per day; time to release of total incorporated drug ([3]; 6 wt % PAG, 8 mM daunomycin, 150 mM AAD): thirty; release rate of drug from hydrogel ([3]; 6 wt % PAG, 8 mM daunomycin, 150 mM AAD, first ten days, DMEM 37° C.): 1 % drug per day; release rate of drug from hydrogel ([3]; 6 wt % PAG, 8 mM daunomycin, 150 mM AAD, following twenty-two days): approximately 4 % per day; time to release of total drug loaded ([3]; 6 wt % PAG, 50 mM AAD cross-linker): two; time to release of total drug loaded ([3]; 6 wt % PAG, 100 mM AAD): two; time to release of total drug loaded ([3]; 6 wt % PAG, elevated AAD concentrations): more than six; IC50 ([2]; Homo sapiens, KB, 48 h): 202 ± 48 nM; fraction retained in the hydrogel particles [4]: 86.9±0.1%

Which results are given for Cc1cc(-c2ccc(/N=N/c3c(S(=O)(=O)O)cc4cc(S(=O)(=O)O)cc(N)c4c3O)c(C)c2)ccc1/N=N/c1c(S(=O)(=O)O)cc2cc(S(=O)(=O)O)cc(N)c2c1O [trypan blue]?
fraction retained in the hydrogel particles [4]: two; time to release of the entire drug from hydrogel ([1]; PAG hydrogels incubated in DMEM): ≤ 24 h
